# Calls of active or inactive are those of the source. The calls are words filed in the database; no cut-off is given here.
# Experiments:
# Format in all cases: functional, cell-based
# A549 [1] = test: Growth inhibition of human A549 cells incubated for 6 days in presence of 400 U/ml IFNalpha by MTS assay; settings: A549, 144 h
# A549 [2] = test: Induction of apoptosis in human A549 cells assessed as increase in PARP cleavage at 14 uM incubated for 4 days in presence of 200 U/ml IFNalpha by Western blot analysis
# A549 [3] = test: Growth inhibition of human A549 cells at 14 uM incubated for 4 days in presence of 200 U/ml IFNalpha and 30 nM 14-3-3zeta siRNA by MTS assay
# OVCAR-3 [4] = test: Growth inhibition of human OVCAR3 cells incubated for 7 days in absence of 400 U/ml IFNalpha by MTS assay; settings: OVCAR-3, 168 h
# OVCAR-3 [5] = test: Growth inhibition of human OVCAR3 cells incubated for 7 days in presence of 400 U/ml IFNalpha by MTS assay; settings: OVCAR-3, 168 h
# A549 [6] = test: Growth inhibition of human A549 cells at 14 uM incubated for 4 days in presence of 200 U/ml IFNalpha and in absence of 30 nM 14-3-3zeta siRNA by MTS assay
# A549 [7] = test: Increase in DR5 protein expression in human A549 cells at 14 uM incubated for 4 days in absence of 200 U/ml IFNalpha by Western blot analysis
# A549 [8] = test: Increase in DR5 protein expression in human A549 cells at 14 uM incubated for 4 days in presence of 200 U/ml IFNalpha by Western blot analysis
# A549 [9] = test: Growth inhibition of human A549 cells incubated for 6 days in absence of 400 U/ml IFNalpha by MTS assay; settings: A549, 144 h
# A549 [10] = test: Growth inhibition of human A549 cells at 13 uM incubated for 4 days in presence of 200 U/ml IFNalpha and in absence of 30 nM 14-3-3zeta siRNA by MTS assay
# A549 [11] = test: Growth inhibition of human A549 cells at 13 uM incubated for 4 days in presence of 200 U/ml IFNalpha and 30 nM 14-3-3zeta siRNA by MTS assay
# A549 [12] = test: Increase in DR5 protein expression in human A549 cells at 13 uM incubated for 4 days in presence of 200 U/ml IFNalpha by Western blot analysis
# A549 [13] = test: Induction of apoptosis in human A549 cells assessed as increase in PARP cleavage at 13 uM incubated for 4 days in absence of 200 U/ml IFNalpha by Western blot analysis
# A549 [14] = test: Increase in DR5 protein expression in human A549 cells at 13 uM incubated for 4 days in absence of 200 U/ml IFNalpha by Western blot analysis
# A549 [15] = test: Induction of apoptosis in human A549 cells assessed as increase in PARP cleavage at 13 uM incubated for 4 days in presence of 200 U/ml IFNalpha by Western blot analysis
# A549 [16] = test: Induction of apoptosis in human A549 cells assessed as increase in PARP cleavage at 14 uM incubated for 4 days in absence of 200 U/ml IFNalpha by Western blot analysis
EC50 (A549 [1]) [µM],EC50 (OVCAR-3 [4]) [µM],EC50 (OVCAR-3 [5]) [µM],EC50 (A549 [9]) [µM],SMILES,Activity (A549 [2]),growth inhibition (GI) (A549 [3]),growth inhibition (GI) (A549 [6]),Activity (A549 [7]),Activity (A549 [8]),growth inhibition (GI) (A549 [10]),growth inhibition (GI) (A549 [11]),Activity (A549 [12]),Activity (A549 [13]),Activity (A549 [14]),Activity (A549 [15]),Activity (A549 [16])
11,> 200,3.3,> 200,COC[C@@]1(O)CC[C@@H]2/C1=C\[C@@]1(C)CCC(C(C)C)=C1[C@@H](O[C@H]1O[C@@H]3COC(C)(C)O[C@H]3[C@H](O)[C@H]1O)[C@H](O)[C@@H]2C,Active,inactive,Active,Active,Active,–,–,–,–,–,–,–
> 40,140,> 40,170,COC[C@@]1(OC)CC[C@@H]2/C1=C\[C@@]1(C)CCC(C(C)C)=C1[C@@H](O[C@H]1O[C@@H]3COC(C)(C)O[C@H]3[C@H](O)[C@H]1O)[C@H](O)[C@@H]2C,–,–,–,–,–,–,–,–,–,–,–,–
27,29,18,33,COC[C@H]1CC[C@@H]2/C1=C\[C@@]1(C)CCC(C(C)C)=C1[C@@H](O[C@H]1O[C@@H]3COC(C)(C)O[C@H]3[C@H](O)[C@H]1O)[C@H](O)[C@@H]2C,–,–,–,–,–,–,–,–,–,–,–,inactive

SMILES,EC50 (A549 [1]) [µM],EC50 (OVCAR-3 [4]) [µM],EC50 (OVCAR-3 [5]) [µM],EC50 (A549 [9]) [µM],Activity (A549 [2]),growth inhibition (GI) (A549 [3]),growth inhibition (GI) (A549 [6]),Activity (A549 [7]),Activity (A549 [8]),growth inhibition (GI) (A549 [10]),growth inhibition (GI) (A549 [11]),Activity (A549 [12]),Activity (A549 [13]),Activity (A549 [14]),Activity (A549 [15]),Activity (A549 [16])
COC[C@H]1O[C@H](O[C@@H]2C3=C(C(C)C)CC[C@]3(C)/C=C3\[C@@H](CC[C@]3(O)COC)[C@@H](C)[C@H]2O)[C@H](O)[C@H]2O[C@H]3O[C@]21O[C@@]3(C)[C@@H]1CO1,17,40,4.6,125,–,–,–,–,–,Active,inactive,Active,inactive,Active,Active,–

# Source: ChEMBL document CHEMBL4184246 (Bioorg Med Chem Lett, 2018)
